Consider 24 compounds from patent publication US8207172B2 (Bayer Intellectual Property GmbH, priority 2004, dated 2012).

Bounds are passed on as bounds.

Assay [1] concerns BT474 (human breast carcinoma). The experiment in a line: In vitro tumor cell proliferation assay (Cell Titer-Glo luminescent cell viability), BT474. In kind it is cell-based. The conditions noted are these: BT-474, 72 h, BT474 cells, 72 hours of drug exposure, ATP luminescence readout, read-out: IC50, anti-proliferative activity (inhibition of cell proliferation). The method, boiled down:
(§1)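 IC50 values reflect ATP-based luminescence (CellTiter-Glo) after 72 h compound exposure at 37°C. Both lines, A431 and BT474, were plated in RPMI with 10% FBS and received serial dilutions ranging from 100 μM to 64 pM final at 0.1% DMSO.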

For assay [2], the system named is A431 cells (human epidermoid carcinoma). Put plainly: In vitro tumor cell proliferation assay (Cell Titer-Glo luminescent cell viability), A431. In kind it is cell-based. Conditions: A-431, 72 h, 72 hours of drug exposure, ATP luminescence readout, read-out: IC50, anti-proliferative activity (inhibition of cell proliferation). The procedure, abridged: as §1

Turning to `CC(C)(C)[Si](C)(C)OCCn1cc2c(n1)CCc1c-2sc2ncnc(Nc3ccc(OCc4cccc(F)c4)c(Cl)c3)c12` [Example 55, 2-(2-{[tert-butyl(dimethyl)silyl]oxy}ethyl)N-{3-chloro-4-[(3-fluorobenzyl)oxy]phenyl}-4,5-dihydro-2H-pyrimido[5′,4′:4,5]thieno[2,3-e]indazol-6-amine], the IC50 in assay [1] is at most 5 µM; in assay [2], at most 50 µM.
Consider `OCCn1cc2c(n1)CCc1c-2sc2ncnc(Nc3ccc(OCc4cccc(F)c4)c(Cl)c3)c12` [Example 56, 2-[6-({3-chloro-4-[(3-fluorobenzyl)oxy]phenyl}amino)-4,5-dihydro-2H-pyrimido[5′,4′:4,5]thieno[2,3-e]indazol-2-yl]ethanol], for which the figures for the IC50 in assay [1] and in assay [2] were at most 1 µM and at most 5 µM, respectively.
In the same order, the values of `CS(=O)(=O)OCCn1cc2c(n1)CCc1c-2sc2ncnc(Nc3ccc(OCc4cccc(F)c4)c(Cl)c3)c12` [Example 57, 2-[6-({3-chloro-4-[(3-fluorobenzyl)oxy]phenyl}amino)-4,5-dihydro-2H-pyrimido[5′,4′:4,5]thieno[2,3-e]indazol-2-yl]ethyl methanesulfonate] are at most 1 µM and at most 5 µM.
For `CN(C)[C@H]1CCN(CCn2cc3c(n2)CCc2c-3sc3ncnc(Nc4ccc(OCc5cccc(F)c5)c(Cl)c4)c23)C1` [Example 58, N-{3-chloro-4-[(3-fluorobenzyl)oxy]phenyl}-2-{2-[(3S)-3-(dimethylamino)pyrrolidin 1-yl]ethyl}-4,5-dihydro-2H-pyrimido[5′,4′:4,5]thieno[2,3-e]indazol-6-amine], the IC50 in assay [1] is at most 1 µM; in assay [2], at most 5 µM.
For `COCCNCCn1cc2c(n1)CCc1c-2sc2ncnc(Nc3ccc(OCc4cccc(F)c4)c(Cl)c3)c12` [Example 59, N-{3-chloro-4-[(3-fluorobenzyl)oxy]phenyl}-2-{2-[(2-methoxyethyl)amino]ethyl}-4,5-dihydro-2H-pyrimido[5′,4′:4,5]thieno[2,3-e]indazol-6-amine], the IC50 is at most 1 µM in assay [1] and at most 5 µM in assay [2].
The corresponding values for `CN(C)[C@@H]1CCN(CCn2cc3c(n2)CCc2c-3sc3ncnc(Nc4ccc(OCc5cccc(F)c5)c(Cl)c4)c23)C1` [Example 60, N-{3-chloro-4-[(3-fluorobenzyl)oxy]phenyl}-2-{2-[(3R)-3-(dimethylamino)pyrrolidin-1-yl]ethyl}-4,5-dihydro-2H-pyrimido[5′,4′:4,5]thieno[2,3-e]indazol-6-amine] are at most 1 µM and at most 5 µM.
The corresponding values for `OCCNCCn1cc2c(n1)CCc1c-2sc2ncnc(Nc3ccc(OCc4cccc(F)c4)c(Cl)c3)c12` [Example 61, 2-({2-[6-({3-chloro-4-[(3-fluorobenzyl)oxy]phenyl}amino)-4,5-dihydro-2H-pyrimido[5′,4′:4,5]thieno[2,3-e]indazol-2-yl]ethyl}amino)ethanol] are at most 1 µM and at most 5 µM.
Regarding `CN1CCN(CCn2cc3c(n2)CCc2c-3sc3ncnc(Nc4ccc(OCc5cccc(F)c5)c(Cl)c4)c23)CC1` [Example 62, N-{3-chloro-4-[(3-fluorobenzyl)oxy]phenyl}-2-[2-(4-methylpiperazin-1-yl)ethyl]-4,5-dihydro-2H-pyrimido[5′,4′:4,5]thieno[2,3-e]indazol-6-amine], the IC50 in assay [1] was at most 1 µM; in assay [2], at most 5 µM.
Regarding `Fc1cccc(COc2ccc(Nc3ncnc4sc5c(c34)CCc3nn(CCN4CCOCC4)cc3-5)cc2Cl)c1` [Example 63, N-{3-chloro-4-[(3-fluorobenzyl)oxy]phenyl}-2-(2-morpholin-4-ylethyl)-4,5-dihydro-2H-pyrimido[5′,4′:4,5]thieno[2,3-e]indazol-6-amine], the IC50 is at most 1 µM in assay [1] and at most 5 µM in assay [2].
`OCCN(CCO)CCn1cc2c(n1)CCc1c-2sc2ncnc(Nc3ccc(OCc4cccc(F)c4)c(Cl)c3)c12` [Example 64, 2,2′-({2-[6-({3-chloro-4-[(3-fluorobenzyl)oxy]phenyl}amino)-4,5-dihydro-2H-pyrimido[5′,4′:4,5]thieno[2,3-e]indazol-2-yl]ethyl}imino)diethanol]: the IC50 in assay [1] is at most 1 µM; in assay [2] it was at most 5 µM.
The corresponding values for `Fc1cccc(COc2ccc(Nc3ncnc4sc5c(c34)CCc3nn(CCN4CCCC4)cc3-5)cc2Cl)c1` [Example 65, N-{3-chloro-4-[(3-fluorobenzyl)oxy]phenyl}-2-(2-pyrrolidin-1-ylethyl)-4,5-dihydro-2H-pyrimido[5′,4′:4,5]thieno[2,3-e]indazol-6-amine] are at most 1 µM and at most 5 µM.
`CN(C)C1CCN(CCn2cc3c(n2)CCc2c-3sc3ncnc(Nc4ccc(OCc5cccc(F)c5)c(Cl)c4)c23)C1` (stereo not drawn) [Example 66, N-{3-chloro-4-[(3-fluorobenzyl)oxy]phenyl}-2-{2-[3-(dimethylamino)pyrrolidin-1-yl]ethyl}-4,5-dihydro-2H-pyrimido[5′,4′:4,5]thieno[2,3-e]indazol-6-amine]: the IC50 in assay [1] was at most 1 µM; in assay [2] it was at most 5 µM.
Take `CN(C)CCNCCn1cc2c(n1)CCc1c-2sc2ncnc(Nc3ccc(OCc4cccc(F)c4)c(Cl)c3)c12` [Example 67, N′-{2-[6-({3-chloro-4-[(3-fluorobenzyl)oxy]phenyl}amino)-4,5-dihydro-2H-pyrimido[5′,4′:4,5]thieno[2,3-e]indazol-2-yl]ethyl}-N,N-dimethylethane-1,2-diamine]: the IC50 in assay [1] was at most 1 µM; in assay [2], at most 5 µM.
Regarding `Fc1cccc(COc2ccc(Nc3ncnc4sc5c(c34)CCc3nn(CCNCCN4CCOCC4)cc3-5)cc2Cl)c1` [Example 68, N-{3-chloro-4-[(3-fluorobenzyl)oxy]phenyl}-2-{2-[(2-morpholin-4-ylethyl)amino]ethyl}-4,5-dihydro-2H-pyrimido[5′,4′:4,5]thieno[2,3-e]indazol-6-amine], the IC50 was at most 1 µM in assay [1] and at most 5 µM in assay [2].
For the compound `COCCN(C)CCn1cc2c(n1)CCc1c-2sc2ncnc(Nc3ccc(OCc4cccc(F)c4)c(Cl)c3)c12` [Example 69, N-{3-chloro-4-[(3-fluorobenzyl)oxy]phenyl}-2-{2-[(2-methoxyethyl)(methyl)amino]ethyl}-4,5-dihydro-2H-pyrimido[5′,4′:4,5]thieno[2,3-e]indazol-6-amine], the IC50 is at most 1 µM in assay [1] and at most 5 µM in assay [2].
`Fc1cccc(COc2ccc(Nc3ncnc4sc5c(c34)CCc3nn(CCN4CCC(N6CCCCC6)CC4)cc3-5)cc2Cl)c1` [Example 70, 2-[2-(1,4′-bipiperidin-1′-yl)ethyl]-N-{3-chloro-4-[(3-fluorobenzyl)oxy]phenyl}-4,5-dihydro-2H-pyrimido[5′,4′:4,5]thieno[2,3-e]indazol-6-amine]: the IC50 in assay [1] was at most 1 µM; in assay [2] it was at most 5 µM.
As for `CNCCn1cc2c(n1)CCc1c-2sc2ncnc(Nc3ccc(OCc4cccc(F)c4)c(Cl)c3)c12` [Example 71, N-{3-chloro-4-[(3-fluorobenzyl)oxy]phenyl}-2-[2-(methylamino)ethyl]-4,5-dihydro-2H-pyrimido[5′,4′:4,5]thieno[2,3-e]indazol-6-amine], the IC50 in assay [1] was at most 1 µM; in assay [2], at most 50 µM.
Turning to `CC(C)(C)OC(=O)N1CCN(CCn2cc3c(n2)CCc2c-3sc3ncnc(Nc4ccc(OCc5cccc(F)c5)c(Cl)c4)c23)CC1` [Example 72, tert-butyl 4-{2-[6-({3-chloro-4-[(3-fluorobenzyl)oxy]phenyl}amino)-4,5-dihydro-2H-pyrimido[5′,4′:4,5]thieno[2,3-e]indazol-2-yl]ethyl}piperazine-1-carboxylate], the IC50 in assay [1] and in assay [2] was at most 50 µM in each case.
Take `CN(C)CCn1cc2c(n1)CCc1c-2sc2ncnc(Nc3ccc(OCc4cccc(F)c4)c(Cl)c3)c12` [Example 73, N-{3-chloro-4-[(3-fluorobenzyl)oxy]phenyl}-2-[2-(dimethylamino)ethyl]-4,5-dihydro-2H-pyrimido[5′,4′:4,5]thieno[2,3-e]indazol-6-amine]: the IC50 is at most 1 µM in assay [1] and at most 5 µM in assay [2].
In the same order, the values of `Fc1cccc(COc2ccc(Nc3ncnc4sc5c(c34)CCc3n[nH]cc3-5)cc2Cl)c1` [Example 74, N-{3-chloro-4-[(3-fluorobenzyl)oxy]phenyl}-4,5-dihydro-2H-pyrimido[5′,4′:4,5]thieno[2,3-e]indazol-6-amine] are at most 1 µM and at most 5 µM.
As to `OC[C@@H](O)Cn1cc2c(n1)CCc1c-2sc2ncnc(Nc3ccc(OCc4cccc(F)c4)c(Cl)c3)c12` [Example 75, (S)-3-{6-[3-Chloro-4-(3-fluoro-benzyloxy)-phenylamino]-4,5-dihydro-10-thia-2,3,7,9-tetraaza-cyclopenta[a]fluoren-2-yl}-propane-1,2-diol], the IC50 in assay [1] is at most 1 µM; in assay [2], at most 5 µM.
Consider `OC[C@H](O)Cn1cc2c(n1)CCc1c-2sc2ncnc(Nc3ccc(OCc4cccc(F)c4)c(Cl)c3)c12` [Example 76, (R)-3-{6-[3-Chloro-4-(3-fluoro-benzyloxy)-phenylamino]-4,5-dihydro-10-thia-2,3,7,9-tetraaza-cyclopenta[a]fluoren-2-yl}-propane-1,2-diol], for which the figures for the IC50 in assay [1] and in assay [2] were at most 1 µM and at most 5 µM, respectively.
In the case of `Fc1cccc(COc2ccc(Nc3ncnc4sc5c(c34)CCc3nn(CCn4ccnc4)cc3-5)cc2Cl)c1` [Example 77, N-{3-chloro-4-[(3-fluorobenzyl)oxy]phenyl}-2-[2-(1H-imidazol-1-yl)ethyl]-4,5-dihydro-2H-pyrimido[5′,4′:4,5]thieno[2,3-e]indazol-6-amine], the IC50 is at most 1 µM in assay [1] and at most 5 µM in assay [2].
In the same order, the values of `CS(=O)(=O)CCNCCn1cc2c(n1)CCc1c-2sc2ncnc(Nc3ccc(OCc4cccc(F)c4)c(Cl)c3)c12` [Example 78, N-{3-chloro-4-[(3-fluorobenzyl)oxy]phenyl}-2-(2-{[2-(methylsulfonyl)ethyl]amino}ethyl)-4,5-dihydro-2H-pyrimido[5′,4′:4,5]thieno[2,3-e]indazol-6-amine] are at most 1 µM and at most 5 µM.
